Article PMC11451635, “A Broad Spectrum Lasso Peptide Antibiotic Targeting the Bacterial Ribosome” (Research Square, 2024)
“Also recorded” adds a separate entry of the source.

Tests used:
[1] = test system: T. thermophilus 70S ribosome; test: X-ray structure of ribosome complex; type: binding, Thermus thermophilus; details: 70S ribosome with mRNA and tRNAs, 250 μM antibiotic
[2] = test system: bacteria; test: Antibiotic activity compared with LAR; type: cell-based; details: Supplementary Fig. 11
Protocol: MICs were determined using broth microdilution method in cation-adjusted Mueller-Hinton Broth (MHBII, BD Difco) following standard procedures unless stated otherwise. Mycobacteria susceptibility was tested in Middlebrook 7H9 medium supplemented with 10% OADC Enrichment (oleic acid, bovine albumin, dextrose, and catalase) (BD Difco). The compounds (2 to 4 μl) were mixed with diluted cultures (5–7 × 10^5 cfu/mL) in MHB (196 to 198 μL) in 96-well round-bottom plates, and 2-fold serial dilutions were made. Plates were incubated at 37°C for 18–22 h, and OD600 readings were taken on Synergy Microplate Reader (Biotek). MIC was determined to be the lowest concentration of antibiotics with no visible growth. For Mycobacterial cultures, the plates were read after two to three days. Susceptibility was also assessed in MOPS minimal medium with 0.4% glucose (M2106 Teknova) and RPMI-1640 medium. Serum effects were tested in MHB with 10% or 50% fetal bovine serum (Invitrogen) or human serum (Heat Inactivated, from human male AB plasma; Sigma-Aldrich). For anaerobic conditions, E. coli was incubated in BD GasPak™ EZ pouch systems. To adjust the pH of the media, 1M NaOH or 1N HCl was used.

[3] = test system: mycobacteria; details: cited from earlier work
[4] = test system: ClpP protease; details: cited from earlier work
[5] = test system: E. coli ribosome; test: Translocation inhibition assay; type: biochemical, Escherichia coli; details: 62.5 μM LAR or 250 μM negamycin, EF-G/GTP, primer extension

## lariocidin B [LAR-B]
[1]
  Ribosome binding (X-ray structure): Both LAR variants form very similar complexes with the ribosome
[2]
  Antibiotic activity relative to LAR: antibiotic activity comparable to that of the main LAR product; also recorded: closely matched that of LAR

## lassomycin
[3]
  Antimycobacterial activity: exhibits antimycobacterial activity
[4]
  Target / activity: targets microbial ClpP protease

## triculamin
[3]
  Antimycobacterial activity: antimycobacterial

## CN(CC(=O)O)NC(=O)C[C@H](N)C[C@@H](O)CN [negamycin, reference compound]
[5]
  Inhibition of ribosome translocation: interferes with the movement of mRNA/tRNA complex through the ribosome
